From patent US7270965B2, “Assays to screen for compounds that bind the dorsal root receptor” (AstraZeneca AB, priority 2000, dated 2007)

Legend:
Format in all cases: cell-based
human DRR = assay: FLIPR calcium mobilization assay (Fluo-3), HEK-293 cells expressing human DRR
Protocol: (§1) REK-293 cells were transfected with a mammalian expression construct coding for the rat and human DRRs (pcDNA 3.0 vector, Invitrogen) using the Superfect reagent (Qiagen). A stable receptor pool of DRR was developed by applying a selection marker (G418, 0.9 mg/ml) and the cells were maintained in this selection medium. The presence of mRNA specific for clone DRR was assessed by Northern blot analysis and by the reverse transcriptase polymerase chain reaction (RT-PCR).
(§2) In order to identify the ligand of clone rat and human DRRs, a collection of peptide and non-peptide ligands was obtained from commercial sources (Sigma, CalBiochem, American Peptide Company, Bachem, RBI, Phoenix). The compounds were dissolved in water/DMSO at 3 μM and placed in 96 well microplates. A total of 1000 compounds (peptides and non-peptides) were prepared and tested.
(§3) A functional assay was performed with FLIPR (Fluorescent Imaging Plate Reader, Molecular Devices) using the fluorescent calcium indicator Fluo-3 (Molecular Probes) on a 96 well platform. BEK-293 cells, either expressing the receptor or wild type cells, were loaded with Fluo-3 as follows. […] The cells were analyzed using the FLIPR system to measure the mobilization of intracellular calcium in response to different compounds.

rat DRR = target: T1, rat DRR (Rattus norvegicus, UniProt Q8R4G1); assay: FLIPR calcium mobilization assay (Fluo-3), HEK-293 cells expressing rat DRR
T1 construct: expressed in transfected cells
T1 sequence (Q8R4G1 1-323): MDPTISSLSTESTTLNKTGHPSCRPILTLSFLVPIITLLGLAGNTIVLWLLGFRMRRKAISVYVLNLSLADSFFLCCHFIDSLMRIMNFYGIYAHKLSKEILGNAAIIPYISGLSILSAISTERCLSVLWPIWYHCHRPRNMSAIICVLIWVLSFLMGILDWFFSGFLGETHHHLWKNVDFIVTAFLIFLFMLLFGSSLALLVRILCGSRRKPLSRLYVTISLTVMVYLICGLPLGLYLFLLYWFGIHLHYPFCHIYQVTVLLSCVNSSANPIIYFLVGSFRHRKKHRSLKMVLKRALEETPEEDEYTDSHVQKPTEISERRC
Protocol: as §1, §2, §3

[1] = system: parental HEK-293 cells (non-transfected); assay: FLIPR calcium mobilization assay (Fluo-3), parental (non-transfected) HEK-293 cells; conditions: wild type / parental HEK-293 cells, compounds dissolved at 3 μM
Protocol: as §2
A functional assay was performed with FLIPR (Fluorescent Imaging Plate Reader, Molecular Devices) using the fluorescent calcium indicator Fluo-3 (Molecular Probes) on a 96 well platform. BEK-293 cells, either expressing the receptor or wild type cells, were loaded with Fluo-3 as follows. Stable HEK-293 clones expressing rat and human DRR or parental cells were plated at a density of 10,000 cells/well in a 96 well plate. On the day of the experiment, the DRR cells were loaded with fluorescent solution (Dulbecco's modified medium with 10% fetal bovine serum containing 4 μM Fluo-3 and 20% pluronic acid). The cells were incubated at 37 C for one hour in a humidified chamber. Following the incubation step, cells were washed five times in Hanks' with 20 mM Hepes and 0.1% BSA (pH 7.4). The cells were analyzed using the FLIPR system to measure the mobilization of intracellular calcium in response to different compounds. […]

Substance: YGGFMRRVGRPEWWMDYOKRYG-OH [BAM-22P]
- calcium response (mobilization of intracellular calcium) (human DRR; HEK-293 cells expressing clone human DRR, FLIPR, Fluo-3, compounds dissolved at 3 μM): consistently elicited signals
- dose-response relationship of calcium response (human DRR; cells transfected with human DRR): observation of a dose-response relationship
- calcium response (mobilization of intracellular calcium) (rat DRR; HEK-293 cells expressing clone rat DRR, FLIPR, Fluo-3, compounds dissolved at 3 μM): consistently elicited signals
- dose-response relationship of calcium response (rat DRR; cells transfected with rat DRR): observation of a dose-response relationship
- calcium response (mobilization of intracellular calcium) [1]: not the wild type cells
